Values of other authors as cited in article PMC4067310, “From Pan-Reactive KV7 Channel Opener to Subtype Selective Opener/Inhibitor by Addition of a Methyl Group” (PLoS ONE, 2014).
Changes are numbered by the printed parent chain.

Experiments:
KV7.4-W242L = biological target: T1, KV7.4-W242L (Homo sapiens, UniProt P56696, W242L); details: cited from earlier work
T1 construct: expressed in transfected cells; host or cells: Xenopus laevis oocytes injected with cRNA (pGEM-HE vector)
T1 sequence (P56696 1-695 W242L): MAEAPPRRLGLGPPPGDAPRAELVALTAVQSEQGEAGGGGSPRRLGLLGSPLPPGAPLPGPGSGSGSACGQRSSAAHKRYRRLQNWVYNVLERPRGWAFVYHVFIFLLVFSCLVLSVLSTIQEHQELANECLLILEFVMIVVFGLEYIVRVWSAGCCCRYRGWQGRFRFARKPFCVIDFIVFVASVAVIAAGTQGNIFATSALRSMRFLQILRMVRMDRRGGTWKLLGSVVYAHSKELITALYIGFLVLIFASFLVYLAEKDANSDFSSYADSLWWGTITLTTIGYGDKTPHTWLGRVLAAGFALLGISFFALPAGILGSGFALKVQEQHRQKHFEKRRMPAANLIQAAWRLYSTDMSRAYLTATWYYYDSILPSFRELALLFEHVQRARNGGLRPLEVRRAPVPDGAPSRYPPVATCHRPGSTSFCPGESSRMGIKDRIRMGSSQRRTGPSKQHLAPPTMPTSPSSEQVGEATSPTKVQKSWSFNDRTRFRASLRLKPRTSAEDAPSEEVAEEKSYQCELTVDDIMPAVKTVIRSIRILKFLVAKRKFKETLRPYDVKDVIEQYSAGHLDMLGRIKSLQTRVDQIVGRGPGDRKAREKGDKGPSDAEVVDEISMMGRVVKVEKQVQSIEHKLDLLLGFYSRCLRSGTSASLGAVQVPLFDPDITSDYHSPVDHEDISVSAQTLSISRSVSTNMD

KV7.4 = biological target: T2, KV7.4 (Homo sapiens, UniProt P56696); set-up: method as in PMID 20011514; details: +40 mV; cited from earlier work
T2 construct: expressed in transfected cells; host or cells: Xenopus laevis oocytes injected with cRNA (pGEM-HE vector)
T2 sequence (P56696 1-695): T1 sequence (P56696 1-695 W242L) with L242W

KV7.2-W236L = biological target: T3, KV7.2-W236L (Homo sapiens, UniProt O43526, W236L); set-up: method as in PMID 20011514; details: all activating effects lost; cited from earlier work
T3 construct: expressed in transfected cells; host or cells: Xenopus laevis oocytes injected with cRNA (pGEM-HE vector)
T3 sequence (O43526 whole entry W236L): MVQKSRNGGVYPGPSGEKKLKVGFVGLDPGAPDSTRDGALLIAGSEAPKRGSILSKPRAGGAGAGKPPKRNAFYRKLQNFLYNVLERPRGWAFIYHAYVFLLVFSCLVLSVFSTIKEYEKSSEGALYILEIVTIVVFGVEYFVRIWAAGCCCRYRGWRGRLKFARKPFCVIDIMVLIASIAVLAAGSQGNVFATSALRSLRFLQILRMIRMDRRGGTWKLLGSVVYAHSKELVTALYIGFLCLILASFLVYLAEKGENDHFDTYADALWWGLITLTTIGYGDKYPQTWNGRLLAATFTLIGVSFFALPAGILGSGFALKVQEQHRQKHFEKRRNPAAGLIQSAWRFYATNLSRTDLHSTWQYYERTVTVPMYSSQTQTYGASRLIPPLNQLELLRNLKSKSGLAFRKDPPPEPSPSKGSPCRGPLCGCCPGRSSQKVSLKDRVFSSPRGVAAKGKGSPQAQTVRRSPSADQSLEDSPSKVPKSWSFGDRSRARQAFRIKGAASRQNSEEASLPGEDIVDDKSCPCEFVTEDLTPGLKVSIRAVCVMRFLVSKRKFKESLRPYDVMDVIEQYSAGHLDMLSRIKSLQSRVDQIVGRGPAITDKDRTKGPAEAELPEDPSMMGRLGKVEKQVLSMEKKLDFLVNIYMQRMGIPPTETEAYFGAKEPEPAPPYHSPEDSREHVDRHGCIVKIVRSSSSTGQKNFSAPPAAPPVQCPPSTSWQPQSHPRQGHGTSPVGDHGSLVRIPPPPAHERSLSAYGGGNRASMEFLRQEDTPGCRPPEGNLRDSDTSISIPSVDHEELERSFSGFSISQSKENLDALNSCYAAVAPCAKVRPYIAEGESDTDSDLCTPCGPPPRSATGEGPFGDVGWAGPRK

## C[C@H](NC(=O)/C=C/c1ccccc1F)c1ccc2c(c1)N(CC1CC1)CCO2 [(S)-2]
KV7.4-W242L
  effect on KV7.4-W242L: fully insensitive
KV7.4
  efficacy, current amplitude % of control: 1927 % of control
KV7.2-W236L
  effect on KV7.2-W236L: purely inhibitory
